# Data taken from ChEMBL document CHEMBL3352027, “Pharmacologically active metabolites, combination screening and target identification-driven drug repositioning in antituberculosis drug discovery” (2014).
# Columns and labels:
# Assay type in all cases: functional
# [1] = test system: Mycolicibacterium smegmatis; assay: Antitubercular activity against Mycobacterium smegmatis by checkerboard assay in presence of spectinomycin
# [2] = test system: Mycolicibacterium smegmatis; assay: Antitubercular activity against Mycobacterium smegmatis by checkerboard assay
# [3] = test system: Mycolicibacterium smegmatis; assay: Antitubercular activity against Mycobacterium smegmatis by checkerboard assay in presence of 25-desacetylrifampicin
# [4] = test system: Mycolicibacterium smegmatis; assay: Ratio of MIC99 for Mycobacterium smegmatis to ratio of MIC99 for Mycobacterium smegmatis in presence of 25-desacetylrifampicin
# [5] = test system: Mycolicibacterium smegmatis; assay: Ratio of MIC99 for Mycobacterium smegmatis to ratio of MIC99 for Mycobacterium smegmatis in presence of kanamycin
# [6] = test system: Mycolicibacterium smegmatis; assay: Antitubercular activity against Mycobacterium smegmatis by checkerboard assay in presence of rifampicin
# [7] = test system: Mycolicibacterium smegmatis; assay: Antitubercular activity against Mycobacterium smegmatis by checkerboard assay in presence of kanamycin
# [8] = test system: Mycobacterium tuberculosis; assay: Antitubercular activity against drug-sensitive Mycobacterium tuberculosis
# [9] = test system: Mycolicibacterium smegmatis; assay: Antitubercular activity against Mycobacterium smegmatis by checkerboard assay in presence of chlorpromazine; conditions: for MIC99: Mycolicibacterium smegmatis
# [10] = test system: Mycolicibacterium smegmatis; assay: Ratio of MIC99 for Mycobacterium smegmatis to ratio of MIC99 for Mycobacterium smegmatis in presence of chlorpromazine
# [11] = test system: Mycolicibacterium smegmatis; assay: Ratio of MIC99 for Mycobacterium smegmatis to ratio of MIC99 for Mycobacterium smegmatis in presence of 7-hydroxy chlorpromazine
# [12] = test system: Mycolicibacterium smegmatis; assay: Antitubercular activity against Mycobacterium smegmatis by checkerboard assay in presence of 7-hydroxy chlorpromazine; conditions: for MIC99: Mycolicibacterium smegmatis
# [13] = test system: Mycolicibacterium smegmatis; assay: Ratio of MIC99 for Mycobacterium smegmatis to ratio of MIC99 for Mycobacterium smegmatis in presence of nor-chlorpromazine
# [14] = test system: Mycolicibacterium smegmatis; assay: Antitubercular activity against Mycobacterium smegmatis by checkerboard assay in presence of nor-chlorpromazine; conditions: for MIC99: Mycolicibacterium smegmatis
# [15] = test system: Mycolicibacterium smegmatis; assay: Antitubercular activity against Mycobacterium smegmatis by checkerboard assay in presence of chlorpromazine-N-oxide; conditions: for MIC99: Mycolicibacterium smegmatis
# [16] = test system: Mycolicibacterium smegmatis; assay: Ratio of MIC99 for Mycobacterium smegmatis to ratio of MIC99 for Mycobacterium smegmatis in presence of chlorpromazine-N-oxide
# [17] = test system: Mycolicibacterium smegmatis; assay: Antitubercular activity against Mycobacterium smegmatis by checkerboard assay in presence of chlorpromazine sulfoxide
# [18] = test system: Mycolicibacterium smegmatis; assay: Antitubercular activity against Mycobacterium smegmatis by checkerboard assay in presence of chlorpromazine-N-S-dioxide
# [19] = test system: Mycolicibacterium smegmatis; assay: Antitubercular activity against Mycobacterium smegmatis assessed as reduction in MIC99 by checkerboard assay in presence of chlorpromazine sulfoxide relative to control
# [20] = test system: Mycolicibacterium smegmatis; assay: Antitubercular activity against Mycobacterium smegmatis assessed as reduction in MIC99 by checkerboard assay in presence of chlorpromazine-N-S-dioxide relative to control
# [21] = test system: Mycolicibacterium smegmatis; assay: Antitubercular activity against Mycobacterium smegmatis by checkerboard assay in presence of nor-chlorpromazine sulfoxide
# [22] = test system: Mycolicibacterium smegmatis; assay: Antitubercular activity against Mycobacterium smegmatis assessed as reduction in MIC99 by checkerboard assay in presence of nor-chlorpromazine sulfoxide relative to control
smiles,measurement,setting,value
CNCCCN1c2ccccc2[S+]([O-])c2ccc(Cl)cc21 (configuration not stated),MIC99,[1],64.9 µM
same,MIC99,[2],> 2080 µM
C[N+](C)([O-])CCCN1c2ccccc2Sc2ccc(Cl)cc21,MIC99,[3],498 µM
same,MIC99,[1],124 µM
same,Ratio,[4],0.5
same,Ratio,[5],0.5
same,MIC99,[6],498 µM
same,MIC99,[7],498 µM
same,MIC99,[2],995 µM
C[N+](C)([O-])CCCN1c2ccccc2[S+]([O-])c2ccc(Cl)cc21 (configuration not stated),MIC99,[1],1900 µM
same,MIC99,[7],475 µM
same,MIC99,[2],> 1900 µM
CN[C@@H]1[C@H](O)[C@H](NC)[C@H]2O[C@]3(O)[C@H](O[C@@H]2[C@H]1O)O[C@H](C)C[C@H]3NC(=O)Cc1ccccn1,MIC,[8],0.8 µg/mL
CN[C@@H]1[C@H](O)[C@H](NC)[C@H]2O[C@]3(O)[C@H](O[C@@H]2[C@H]1O)O[C@H](C)C[C@H]3NC(=O)Cc1ccccc1,MIC,[8],0.8 µg/mL
CN[C@@H]1[C@H](O)[C@H](NC)[C@H]2O[C@]3(O)[C@H](O[C@@H]2[C@H]1O)O[C@H](C)C[C@H]3NC(=O)Cc1ccc(F)cn1,MIC,[8],0.8 µg/mL
CN[C@@H]1[C@H](O)[C@H](NC)[C@H]2O[C@]3(O)[C@H](O[C@@H]2[C@H]1O)O[C@H](C)C[C@H]3NC(=O)Cc1ccc(Cl)cn1,MIC,[8],0.8 µg/mL
CN[C@@H]1[C@H](O)[C@H](NC)[C@H]2O[C@]3(O)[C@H](O[C@@H]2[C@H]1O)O[C@H](C)C[C@H]3NC(=O)CNC(C)(C)C,MIC,[8],0.8 µg/mL
CN[C@@H]1[C@H](O)[C@H](NC)[C@H]2O[C@]3(O)[C@H](O[C@@H]2[C@H]1O)O[C@H](C)C[C@H]3NC(=O)Cc1cscn1,MIC,[8],0.8 µg/mL
CN[C@@H]1[C@H](O)[C@H](NC)[C@H]2O[C@]3(O)[C@H](O[C@@H]2[C@H]1O)O[C@H](C)C[C@H]3NC(=O)Cc1cc(Cl)ccn1,MIC,[8],0.8 µg/mL
CN(C)CCCN1c2ccc(O)cc2Sc2ccc(Cl)cc21 [7-HYDROXYCHLORPROMAZINE],MIC99,[3],62.2 µM
same,MIC99,[1],15.6 µM
same,Ratio,[4],0.5
same,MIC99,[9],62.2 µM
same,MIC99,[6],31.1 µM
same,MIC99,[7],31.1 µM
same,MIC99,[2],62.2 µM
same,Ratio,[10],0.5
CN(C)CCCN1c2ccccc2[S+]([O-])c2ccc(Cl)cc21 (configuration not stated) [CHLOROPROMAZINE SULFOXIDE],MIC99,[1],1990 µM
same,MIC99,[7],1990 µM
same,MIC99,[2],> 1990 µM
CN(C)CCCN1c2ccccc2Sc2ccc(Cl)cc21 [CHLORPROMAZINE],MIC99,[3],29.3 µM
same,MIC99,[1],29.3 µM
same,Ratio,[5],0.5
same,MIC99,[6],58.6 µM
same,Ratio,[11],0.25
same,MIC99,[7],58.6 µM
same,MIC99,[2],117 µM
same,MIC99,[12],29.3 µM
CO[C@H]1/C=C/O[C@@]2(C)Oc3c(C)c(O)c4c(O)c(c(/C=N/N5CCN(C)CC5)c(O)c4c3C2=O)NC(=O)/C(C)=C\C=C\[C@H](C)[C@H](O)[C@@H](C)[C@@H](O)[C@@H](C)[C@H](O)[C@@H]1C [DESACETYLRIFAMPIN],Ratio,[13],0.252
same,fractional inhibitory concentration index (FICI),[14],0.5
same,MIC99,[14],0.67 µM
same,fractional inhibitory concentration index (FICI),[15],0.75
same,MIC99,[15],0.67 µM
same,fractional inhibitory concentration index (FICI),[9],0.5
same,MIC99,[9],1.33 µM
same,Ratio,[16],0.252
same,Ratio,[11],0.248
same,MIC99,[2],5.33 µM
same,Ratio,[10],0.25
same,fractional inhibitory concentration index (FICI),[12],0.75
same,MIC99,[12],0.33 µM
NC[C@H]1O[C@H](O[C@H]2[C@H](O)[C@@H](O[C@H]3O[C@H](CO)[C@@H](O)[C@H](N)[C@H]3O)[C@H](N)C[C@@H]2N)[C@H](O)[C@@H](O)[C@@H]1O [KANAMYCIN],Ratio,[13],0.249
same,fractional inhibitory concentration index (FICI),[14],0.5
same,MIC99,[14],0.89 µM
same,MIC99,[17],0.89 µM
same,MIC99,[18],0.89 µM
same,fold change (FC),[19],2
same,fractional inhibitory concentration index (FICI),[15],1
same,MIC99,[15],0.89 µM
same,fractional inhibitory concentration index (FICI),[9],1
same,MIC99,[9],3.57 µM
same,Ratio,[16],0.497
same,Ratio,[11],0.249
same,MIC99,[2],7.16 µM
same,Ratio,[10],0.5
same,fractional inhibitory concentration index (FICI),[12],0.5
same,MIC99,[12],0.89 µM
same,fold change (FC),[20],2
CNCCCN1c2ccccc2Sc2ccc(Cl)cc21 [NOR1-CHLORPROMAZINE],MIC99,[3],34.2 µM
same,MIC99,[1],34.2 µM
same,Ratio,[4],0.25
same,Ratio,[5],0.25
same,MIC99,[6],34.2 µM
same,MIC99,[7],34.2 µM
same,MIC99,[2],137 µM
CO[C@H]1/C=C/O[C@@]2(C)Oc3c(C)c(O)c4c(O)c(c(/C=N/N5CCN(C)CC5)c(O)c4c3C2=O)NC(=O)/C(C)=C\C=C\[C@H](C)[C@H](O)[C@@H](C)[C@@H](O)[C@@H](C)[C@H](OC(C)=O)[C@@H]1C [RIFAMPIN],Ratio,[13],0.254
same,fractional inhibitory concentration index (FICI),[14],0.5
same,MIC99,[14],0.32 µM
same,fractional inhibitory concentration index (FICI),[15],1
same,MIC99,[15],0.63 µM
same,fractional inhibitory concentration index (FICI),[9],0.63
same,MIC99,[9],0.2 µM
same,Ratio,[16],0.5
same,Ratio,[11],0.126
same,MIC99,[2],2.53 µM
same,Ratio,[10],0.126
same,fractional inhibitory concentration index (FICI),[12],0.63
same,MIC99,[12],0.32 µM
CN[C@@H]1[C@H](O)[C@H](NC)[C@H]2O[C@@]3(O)C(=O)C[C@@H](C)O[C@H]3O[C@@H]2[C@H]1O [SPECTINOMYCIN],Ratio,[13],0.062
same,MIC99,[21],21 µM
same,fractional inhibitory concentration index (FICI),[14],0.31
same,MIC99,[14],5.25 µM
same,MIC99,[17],10.5 µM
same,MIC99,[18],42 µM
same,fold change (FC),[19],16
same,fractional inhibitory concentration index (FICI),[15],0.63
same,MIC99,[15],84.1 µM
same,fold change (FC),[22],4
same,fractional inhibitory concentration index (FICI),[9],0.31
same,MIC99,[9],5.25 µM
same,Ratio,[16],0.5
same,Ratio,[11],0.062
same,MIC99,[2],84.1 µM
same,Ratio,[10],0.062
same,fractional inhibitory concentration index (FICI),[12],0.19
same,MIC99,[12],5.25 µM
same,fold change (FC),[20],2
